Data from ChEMBL document CHEMBL5614413, “Design, synthesis and biological evaluation of amphiphilic benzopyran derivatives as potent antibacterial agents against multidrug-resistant bacteria” (Eur J Med Chem, 2024).
≈ marks a conversion by molar mass, not a printed value. Calls of active or inactive are those of the source. The calls are words filed in the database; no cut-off is given here.

What was measured:
Staphylococcus aureus [1] = experiment: Antibacterial activity against methicillin-resistant Staphylococcus aureus ATCC 43300 infected in sepsis mouse model assessed as reduction in bacterial load in liver at 5 mg/kg pre-infected with bacteria for 1 hrs followed by continuous compound administration at 12 hrs intervals for 2 days (reference value: 7.16 log10CFU/g); type: functional; details: time 2 day
Cell membrane [2] = experiment: Induction of cell membrane disruption in methicillin-resistant Staphylococcus aureus ATCC 43300 assessed as increase in protein leakage; type: cell membranes
Staphylococcus aureus [3] = experiment: Antibacterial activity against methicillin-resistant Staphylococcus aureus ATCC 43300 infected in sepsis mouse model assessed as reduction in number of surviving bacterial colonies in liver at 10 mg/kg pre-infected with bacteria for 1 hrs followed by continuous compound administration at 12 hrs intervals for 2 days relative to control; type: functional; details: time 2 day
Staphylococcus aureus [4] = experiment: Drug resistance, ratio of MIC for methicillin-resistant Staphylococcus aureus ATCC 43300 after 20 passages to MIC for methicillin-resistant Staphylococcus aureus ATCC 43300 during first exposure; type: functional
Staphylococcus aureus [5] = experiment: Inhibition of biofilm formation in methicillin-resistant Staphylococcus aureus ATCC 43300; type: functional, organism-based; details: dose 2-32 µg/ml
Bacillus subtilis = experiment: Antibacterial activity against penicillin-susceptible Bacillus subtilis ATCC 9372; type: functional
Staphylococcus aureus [6] = experiment: Antibacterial activity against methicillin-resistant Staphylococcus aureus ATCC 43300 infected in sepsis mouse model assessed as reduction in pathological damages in spleen at 5 to 10 mg/kg pre-infected with bacteria for 1 hrs followed by continuous compound administration at 12 hrs intervals for 2 days by H and E staining based analysis; type: functional, organism-based; details: dose 5-10 mg/kg, time 2.0 day
Staphylococcus aureus [7] = experiment: Bactericidal activity against methicillin-resistant Staphylococcus aureus ATCC 43300 by Mueller Hinton broth based assay; type: functional; details: time <= 6 hrs
Pseudomonas aeruginosa = experiment: Antibacterial activity against penicillin-susceptible Pseudomonas aeruginosa ATCC 27853; type: functional
Staphylococcus aureus [8] = experiment: Antibacterial activity against methicillin-resistant Staphylococcus aureus ATCC 43300 infected in sepsis mouse model assessed as reduction in bacterial load in kidney at 10 mg/kg pre-infected with bacteria for 1 hrs followed by continuous compound administration at 12 hrs intervals for 2 days (reference value: 6.75 log10CFU/g); type: functional; details: time 2 day
Staphylococcus aureus [9] = experiment: Antibacterial activity against methicillin-resistant Staphylococcus aureus ATCC 43300 infected in sepsis mouse model assessed as reduction in number of surviving bacterial colonies in blood at 5 mg/kg pre-infected with bacteria for 1 hrs followed by continuous compound administration at 12 hrs intervals for 2 days relative to control; type: functional; details: time 2 day
Staphylococcus aureus [10] = experiment: Antibacterial activity against methicillin-resistant Staphylococcus aureus ATCC 43300 infected in sepsis mouse model assessed as reduction in number of surviving bacterial colonies in liver at 5 mg/kg pre-infected with bacteria for 1 hrs followed by continuous compound administration at 12 hrs intervals for 2 days relative to control; type: functional; details: time 2 day
Staphylococcus aureus [11] = experiment: Antibacterial activity against methicillin-resistant Staphylococcus aureus ATCC 43300 infected in sepsis mouse model assessed as reduction in pathological damages in kidney at 5 to 10 mg/kg pre-infected with bacteria for 1 hrs followed by continuous compound administration at 12 hrs intervals for 2 days by H and E staining based analysis; type: functional, organism-based; details: dose 5-10 mg/kg, time 2.0 day
Staphylococcus aureus [12] = experiment: Antibacterial activity against methicillin-resistant Staphylococcus aureus ATCC 43300 at 1/2 times of MIC measured after 20 passage; type: functional, organism-based
Staphylococcus aureus [13] = experiment: Inhibition of biofilm formation in methicillin-resistant Staphylococcus aureus ATCC 43300 at 8 microg/ml relative to control; type: functional
Enterococcus faecalis = experiment: Antibacterial activity against vancomycin-susceptible Enterococcus faecalis ATCC 29212; type: functional
Staphylococcus aureus [14] = experiment: Disruption of preformed biofilm in methicillin-resistant Staphylococcus aureus ATCC 43300 assessed as eradication of biofilm at 64 microg/ml by crystal violet staining based analysis relative to control; type: functional; details: dose 64 µg/ml
Staphylococcus aureus [15] = experiment: Antibacterial activity against penicillin-resistant Staphylococcus aureus ATCC 31007; type: functional
Cell membrane [16] = experiment: Disruption of cell membrane in methicillin-resistant Staphylococcus aureus ATCC 43300 assessed as appearance of broken surface by scanning electron microscopic analysis; type: cell membranes
Staphylococcus aureus [17] = experiment: Bactericidal activity against methicillin-resistant Staphylococcus aureus ATCC 43300 in presence of 50% human serum by Mueller Hinton broth based assay; type: functional
Staphylococcus aureus [18] = experiment: Antibacterial activity against methicillin-resistant Staphylococcus aureus ATCC 43300 infected in sepsis mouse model assessed as reduction in bacterial load in kidney at 5 mg/kg pre-infected with bacteria for 1 hrs followed by continuous compound administration at 12 hrs intervals for 2 days (reference value: 6.75 log10CFU/g); type: functional; details: time 2 day
Klebsiella pneumoniae = experiment: Antibacterial activity against Klebsiella pneumoniae ATCC 10031; type: functional
[19] = tested on: Staphylococcus epidermidis; experiment: Antibacterial activity erythromycin-susceptible Staphylococcus epidermidis ATCC 12228; type: functional
Cell membrane [20] = experiment: Induction of cytoplasmic membrane permeabilization in methicillin-resistant Staphylococcus aureus ATCC 43300 assessed as increase fluorescence intensity at 16 microg/ml by PI staining based fluorescence analysis; type: cell membranes; details: dose 16.0 µg/ml
Staphylococcus aureus [21] = experiment: Antibacterial activity against methicillin-resistant Staphylococcus aureus ATCC 43300 infected in sepsis mouse model assessed as reduction in number of surviving bacterial colonies in kidney at 10 mg/kg pre-infected with bacteria for 1 hrs followed by continuous compound administration at 12 hrs intervals for 2 days relative to control; type: functional; details: time 2 day
Staphylococcus aureus [22] = experiment: Disruption of preformed biofilm in methicillin-resistant Staphylococcus aureus ATCC 43300 assessed as eradication of biofilm by crystal violet staining method; type: functional, organism-based; details: dose 2-64 µg/ml
Staphylococcus aureus [23] = experiment: Induction of ROS production in methicillin-resistant Staphylococcus aureus ATCC 43300 assessed as fold increase in ROS level at 32 microg/ml by DCFH-DA staining based analysis; details: dose 32 µg/ml
Staphylococcus aureus [24] = experiment: Bacteriostatic activity against methicillin-resistant Staphylococcus aureus ATCC 43300 assessed as inhibition of bacterial growth at 2 times of MIC measured after 24 hrs by time-kill kinetic analysis; type: functional, organism-based
Staphylococcus aureus [25] = experiment: Antibacterial activity against methicillin-resistant Staphylococcus aureus ATCC 43300 infected in sepsis mouse model assessed as reduction in bacterial load in blood at 5 mg/kg pre-infected with bacteria for 1 hrs followed by continuous compound administration at 12 hrs intervals for 2 days (reference value: 3.69 log10CFU/ml); type: functional; details: time 2 day
Staphylococcus aureus [26] = experiment: Antibacterial activity against methicillin-resistant Staphylococcus aureus ATCC 43300 infected in sepsis mouse model assessed as decrease in IL-6 level in blood at 5 to 10 mg/kg pre-infected with bacteria for 1 hrs followed by continuous compound administration at 12 hrs intervals for 2 days; type: functional, organism-based; details: dose 5-10 mg/kg, time 2.0 day
Staphylococcus aureus [27] = experiment: Antibacterial activity against methicillin-resistant Staphylococcus aureus ATCC 43300 infected in sepsis mouse model assessed as reduction in number of surviving bacterial colonies in spleen at 10 mg/kg pre-infected with bacteria for 1 hrs followed by continuous compound administration at 12 hrs intervals for 2 days relative to control; type: functional; details: time 2 day
Staphylococcus aureus [28] = experiment: Selectivity ratio of MBC for bactericidal activity against methicillin-resistant Staphylococcus aureus ATCC 43300 in presence of 50% human blood to MBC for bactericidal activity against methicillin-resistant Staphylococcus aureus ATCC 43300; type: functional

For CCCCN(CCCC)CCCNCCCOc1c(C(C)=O)ccc2c1C=CC(C)(CCC=C(C)C)O2 (configuration not stated), the Activity (Staphylococcus aureus [1]) was 1.98 log10CFU/g, the Activity (Cell membrane [2]) was “Active” and the Activity (Staphylococcus aureus [3]) was 99.8%. The Ratio (Staphylococcus aureus [4]) was 2, the inhibition (Staphylococcus aureus [5]) was “Dose-Dependent Effect” and the MIC (Bacillus subtilis) was 2 µg/mL (≈ 3.9 µM). For the same compound, the Activity (Staphylococcus aureus [6]) was “Active”, the MBC (Staphylococcus aureus [7]) was 8 µg/mL (≈ 15.6 µM) and the MIC (Pseudomonas aeruginosa) was 32 µg/mL (≈ 62.4 µM). For the same compound, the Activity (Staphylococcus aureus [8]) was 2.84 log10CFU/g, the Activity (Staphylococcus aureus [9]) was 91.8% and the Activity (Staphylococcus aureus [10]) was 98.9%. The Activity (Staphylococcus aureus [11]) was “Active”, the Activity (Staphylococcus aureus [12]) was “Active” and the inhibition at 8 µg/mL (Staphylococcus aureus [13]) was 37.2%. It also gave an MIC (Enterococcus faecalis) of 4 µg/mL (≈ 7.8 µM), an Activity (Staphylococcus aureus [14]) greater than 40% and an MIC (Staphylococcus aureus [15]) of 4 µg/mL (≈ 7.8 µM). For the same compound, the Activity (Cell membrane [16]) was “Active”, the MBC (Staphylococcus aureus [17]) was 16 µg/mL and the Activity (Staphylococcus aureus [18]) was 2.09 log10CFU/g. For the same compound, the MIC (Klebsiella pneumoniae) was 4 µg/mL (≈ 7.8 µM), the MIC [19] was 1 µg/mL (≈ 1.95 µM) and the Activity (Cell membrane [20]) was “Active”. The Activity (Staphylococcus aureus [21]) was 99.9%, the Activity (Staphylococcus aureus [22]) was “Dose-Dependent Effect” and the “fold change (FC)” value (Staphylococcus aureus [23]) was 5. The Activity (Staphylococcus aureus [24]) was “Active”, the Activity (Staphylococcus aureus [25]) was 1.1 log10CFU/ml and the Activity (Staphylococcus aureus [26]) was “Active”. It also gave an Activity (Staphylococcus aureus [27]) of 99.4% and a selectivity ratio (Staphylococcus aureus [28]) of 2.
